In brackets after ≈: the same amount, converted by molar mass.
Columns and labels:
[1] = system: hypoxic pulmonary vasoconstriction (HPV) response; experiment: Acute hypoxic rat model: pulmonary (PAP) and systemic (MAP) arterial pressure after treatment; type: in vivo
Protocol: Surgical procedures and hemodynamic measurements: Rats were anesthetized by intramuscular injection with ketamine/xylazine mixture (75 and 6 mg/kg, respectively). The ventral neck was shaved and a 2 cm incision was made in the right ventral neck where the jugular vein and right carotid artery were isolated via blunt dissection. A polyethylene (PE-50) catheter was introduced into the right carotid to measure systemic blood pressure. A polyvinyl (PV-1) catheter was inserted into the jugular vein and threaded through the right atrium, right ventricle, and into the lumen of the main pulmonary artery to obtain pulmonary arterial pressure. Fluid filled catheters were connected to pressure transducers and monitored continuously with the MP150 data acquisition system (BioPAC Systems; Goleta, Calif.). Blood pressures were recorded every two minutes for data analysis.
After completion of catheter placements and instrumentation for hemodynamic measurements, a 1 cm incision was made above the trachea, and the trachea was isolated by blunt dissection. A tracheotomy was performed approximately 4 mm above the carina and an endotracheal tube specially designed for rats was inserted such that the end of the tube was placed roughly 2 mm distal from the carina. This placement allowed the tip of a Microsprayer® attached to the FMJ-250 syringe (Penn-Century; Philadelphia, Pa.) to protrude approximately 1 mm from the trachea tube and deliver aerosolized emulsion to both right and left lung periphery (FIG. 1A).
Testing efficacy of intrapulmonary delivery of ambrisentan: following instrumentation and tracheotomy, anesthetized rats were placed in a specially designed Plexiglas box built to accommodate exteriorized catheters for completion of the study protocol (depicted graphically in FIG. 1B). Baseline PAP and mean systemic arterial pressure (MAP) were recorded. Next, rats were switched from breathing room air to a hypoxic gas mixture for 10 minutes. Acute hypoxia was induced in rats by exposure to 13% O2 (room air/nitrogen dilution; FIG. 1A). […] This first hypoxic challenge was followed by 20 minutes of room air breathing. […] During this period of room air breathing, rats were allowed to recover from hypoxia for 10 minutes prior to treatment administration via the Microsprayera Treatments were delivered as a 100-microliter bolus aerosol immediately following emulsification to avoid potential phase separation. Following treatment, rats remained breathing room air for an additional 10 minutes to allow drug absorption before being exposed to a second 10-minute hypoxic challenge. Following the second hypoxic challenge, rats returned to breathing room air and blood pressures were monitored for 15 minutes before animals were euthanized with intravenous injection of a euthanasia agent.
Intravenous infusion: As a reference to aid in understanding the response of intrapulmonary delivery of ambrisentan, an additional treatment group for intravenous (IV) infusion of ambrisentan was also investigated (5 mg/kg; 0.5 mL saline). […]
This study was conducted to test the use and efficacy of a water-in-fluorocarbon emulsion of this disclosure to encapsulate ambrisentan or sodium nitrite for intrapulmonary drug delivery. An acute hypoxic rat model was used, and pulmonary and systemic arterial pressure were recorded to determine efficacy of the drug delivery system for treatment of the acute hypoxic pulmonary vasoconstrictive response. […]

[2] = Solubility of ambrisentan in PBS; type: physicochemical; details: pH 7.8, aqueous buffer, pH raised to 7.8
Text: The aqueous solution of ambrisentan was then mixed with Krytox and PFOB and emulsified as previously described.

| MAP during the second hypoxic challenge ([1]; in vivo) | solubility [2] [mg/mL] | SMILES | pulmonary arterial pressure compared to the empty emulsion ([1]; acute hypoxia, intrapulmonary emulsion, 0.1 mg/kg) | adverse effects (systemic arterial pressure during acute hypoxia) ([1]; intrapulmonary emulsion) | mean pulmonary arterial pressure when exposed to acute hypoxia ([1]; intrapulmonary emulsion, high dose 0.5 mg/kg) | adverse effects (systemic arterial pressure during acute hypoxia) ([1]; in vivo) |
| --- | --- | --- | --- | --- | --- | --- |
|  |  | O=NO [sodium nitrite] | did not significantly change | no adverse effects were observed | significantly reduced |  |
| did not further reduce | ~100 (≈ 264 mM) | COC(c1ccccc1)(c1ccccc1)[C@H](Oc1nc(C)cc(C)n1)C(=O)O [ambrisentan] |  |  |  | no adverse effects were observed |
